Assay results reported in patent US20260049072A1, “HETEROCYCLIC COMPOUND FOR INDUCING DEGRADATION OF MUTANT KRAS PROTEIN” (Astellas Pharma Inc., priority 2022, published 2026).
Read-outs that look alike come from different tables or passages of the source.

How the values were obtained:
RAS G12D = biological target: T1, RAS G12D (Homo sapiens, UniProt P01116, G12D); experiment: RAS G12D degradation activity, Cell ELISA, AsPC-1; type: cell-based; conditions: AsPC-1 cells, 24 hours; read-out: DC50 (RAS G12D 50% degradation value)
T1 construct: host or cells: AsPC-1 human pancreatic cancer cells
Experimental: Test Example 1-2: Evaluation of RAS G12D Degradation Activity on Human KRAS G12D Mutant-Positive Pancreatic Cancer Line AsPC-1
The RAS G12D degradation activities of subject compounds were evaluated in the same manner as in Test Example 1-1 by measuring the expression levels of RAS G12D by a Cell ELISA method.
AsPC-1 cells (ATCC, CRL-1682) were seeded at 36 μL per well on a 384-well plate to give 2.0×10^4 cells per well. As for the cell culture conditions, RPMI-1640 medium (from Sigma-Aldrich) containing 10% fetal bovine serum was used in the presence of 5% CO2 at 37° C.
The next day, the subject compounds (10 points having final concentrations in the range of 3 μM to 0.1 nM) and DMSO, which was the solvent for the subject compounds, as a negative control were diluted 100-fold with a fresh medium and were each added at 4 μL per well, followed by culturing for 24 hours.
The next day, the procedures from the immobilization of the cells to before the addition of the blocking solution were performed by the same methods as in Test Example 1-1. A blocking solution (Intercept Blocking Buffer; from LI-COR Biosciences) was added at 20 μL per well. After allowing the plate to stand for 30 minutes at room temperature, the supernatant was removed by centrifugation. A solution obtained by diluting an anti-R-actin antibody (1,000-fold dilution) with the blocking solution was added to the wells of the positive control as a primary antibody, and a solution obtained by diluting an anti-Ras (G12D Mutant Specific) antibody (Ras (G12D Mutant Specific) (D8H7) Rabbit mAb; from Cell Signaling Technology; 1,000-fold dilution) and an anti-3-actin antibody (1,000-fold dilution) with the blocking solution was added to the other wells as primary antibodies, each at 15 μL per well. The plate was allowed to stand overnight at 4° C.
The next day, the supernatant was removed by centrifugation, and the plate was washed with PBS. The supernatant was removed by centrifugation, and a solution obtained by diluting an anti-rabbit IgG antibody and an anti-mouse IgG antibody 1,000-fold with the blocking solution was added at 15 μL per well as secondary antibodies. After allowing the plate to stand at room temperature for an hour, the supernatant was removed by centrifugation, and the plate was washed with PBS. After removing the supernatant, the plate was dried as it was with air at room temperature for two hours or more, and the 700-nm and 800-nm fluorescent signals were measured with Aerius.
With the RAS G12D signaling value at the time of addition of DMSO corrected with the signaling value of β-actin taken as 0% and with the RAS G12D signaling value under the conditions of staining with the anti-β-actin antibody alone taken as 100%, the RAS G12D degradation rates were calculated. The 50% degradation values (DC50) were calculated by Sigmoid-Emax model nonlinear regression analysis.

AsPC-1 cells = experiment: Non-anchorage-dependent cell growth inhibition (spheroid 3D culture), AsPC-1; type: cell-based; conditions: Homo sapiens, ASPC1, 144 h, read-out: AsPC-1 IC50
Experimental: Test Example 3: Evaluation of Non-Anchorage-Dependent Cell Growth Inhibitory Activity on Human KRAS G12V Mutant-Positive Pancreatic Cancer Line PA-TU-8902, Human KRAS G12D Mutant-Positive Pancreatic Cancer Line AsPC-1 or Human KRAS G12C Mutant-Positive Pancreatic Cancer Line MIA PaCa-2
The non-anchorage-dependent cell growth inhibitory activities of subject compounds were evaluated by spheroid 3D cell culture.
PA-TU-8902 cells, AsPC-1 cells or MIA PaCa-2 cells (RIKEN BRC, RCB2094) were seeded at 36 µL/well on a low-cell-adhesive round bottom 384-well plate (Prime Surface: from Sumitomo Bakelite) to give 5×10^2 cells per well. The PA-TU-8902 cells were under the same conditions as in Test Example 1-1, and the AsPC-1 cells were under the same conditions as in Test Example 1-2. For the MIA PaCa-2 cells, RPMI-1640 medium containing 10% fetal bovine serum was used in the presence of 5% CO2 at 37° C.
The next day, the subject compounds (6-9 points having final concentrations in the range of 3 μM to 0.3 nM) and DMSO, which was the solvent for the subject compounds, as a negative control were diluted 100-fold with a fresh medium and were each added at 4 μL per well. After culturing in the presence of 5% CO2 at 37° C. for six days, CellTiter-Glo 2.0 (from Promega) was added at 20 μL per well. After stirring with a plate mixer (from FINEPCR) at normal temperature for an hour, the luminescent signals were measured with ARVO X3 (from PerkinElmer).
With the signaling value in treatment with DMSO taken as 0% inhibition and with the signaling value in the medium alone without cells taken as 100% inhibition, the 50% inhibition values (IC50) were calculated by Sigmoid-Emax model nonlinear regression analysis.

[1] = KRAS G12D mutant-positive, 3D spheroid, six days, CellTiter-Glo 2.0

T1 sequence (P01116 1-188 isoform P01116-2 G12D): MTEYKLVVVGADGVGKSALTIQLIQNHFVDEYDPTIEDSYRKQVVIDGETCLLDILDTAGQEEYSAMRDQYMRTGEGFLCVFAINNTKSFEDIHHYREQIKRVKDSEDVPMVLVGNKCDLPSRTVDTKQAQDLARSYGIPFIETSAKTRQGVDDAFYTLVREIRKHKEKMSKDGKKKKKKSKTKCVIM

DC50 (RAS G12D) [nM] | IC50 (AsPC-1 cells; [1]) [nM] | SMILES | IC50 (AsPC-1 cells) [nM]
6 | 18 | CO[C@@H](C)COc1cc(OC2CN(C(=O)O[C@H]3C[C@@H](N(C)C)C3)C2)c2cc(C3CC3)c(-c3c(C)c(F)cc4[nH]ncc34)c(OCc3ccc(-c4cn([C@H](C(=O)N5C[C@H](O)C[C@H]5C(=O)N[C@@H](CO)c5ccc(-n6cncn6)cc5)C(C)C)nn4)cc3)c2n1 (atropisomer, axis not shown; (M)) [Example 13, (1s,3R)-3-(dimethylamino)cyclobutyl 3-({(7M)-6-cyclopropyl-7-(6-fluoro-5-methyl-1H-indazol-4-yl)-8-{[4-(1-{(2S)-1-[(2S,4R)-4-hydroxy-2-({(1R)-2-hydroxy-1-[4-(1H-1,2,4-triazol-1-yl)phenyl]ethyl}carbamoyl)pyrrolidin-1-yl]-3-methyl-1-oxobutan-2-yl}-1H-1,2,3-triazol-4-yl)phenyl]methoxy}-2-[(2S)-2-methoxypropoxy]quinolin-4-yl}oxy)azetidine-1-carboxylate] | 
4 | 11 | CO[C@@H](C)COc1nc(NC2CN(C(=O)O[C@H]3C[C@@H](N(C)C)C3)C2)c2cc(C3CC3)c(-c3c(C)c(F)cc4[nH]ncc34)c(OCc3ccc(-c4cn([C@H](C(=O)N5C[C@H](O)C[C@H]5C(=O)N[C@@H](CO)c5ccc(-c6scnc6C)cc5)C(C)C)nn4)cc3)c2n1 (atropisomer, axis not shown; (M)) [Example 11, (1s,3R)-3-(dimethylamino)cyclobutyl 3-({(7M)-6-cyclopropyl-7-(6-fluoro-5-methyl-1H-indazol-4-yl)-8-{[4-(1-{(2S)-1-[(2S,4R)-4-hydroxy-2-({(1R)-2-hydroxy-1-[4-(4-methyl-1,3-thiazol-5-yl)phenyl]ethyl}carbamoyl)pyrrolidin-1-yl]-3-methyl-1-oxobutan-2-yl}-1H-1,2,3-triazol-4-yl)phenyl]methoxy}-2-[(2S)-2-methoxypropoxy]quinazolin-4-yl}amino)azetidine-1-carboxylate] | 
3 | 14 | CO[C@@H](C)COc1nc(NC2CN(C(=O)N3CC(CN(C)C)C3)C2)c2cc(C3CC3)c(-c3c(C)c(F)cc4[nH]ncc34)c(OCc3ccc(-c4cn([C@H](C(=O)N5C[C@H](O)C[C@H]5C(=O)N[C@@H](CO)c5ccc(-c6scnc6C)cc5)C(C)C)nn4)cc3)c2n1 (atropisomer, axis not shown) [Example 25] | 
5 | 14 | CO[C@@H](C)COc1cc(OC2CN(C(=O)N3CC(CN(C)C)C3)C2)c2cc(C3CC3)c(-c3c(C)c(F)cc4[nH]ncc34)c(OCc3ccc(-c4cn([C@H](C(=O)N5C[C@H](O)C[C@H]5C(=O)N[C@@H](CO)c5ccc(-c6ocnc6C)cc5)C(C)C)nn4)cc3)c2n1 (atropisomer, axis not shown; (M)) [Example 6, (4R)-1-[(2S)-2-(4-{4-[({(7M)-6-cyclopropyl-4-[(1-{3-[(dimethylamino)methyl]azetidine-1-carbonyl}azetidin-3-yl)oxy]-7-(6-fluoro-5-methyl-1H-indazol-4-yl)-2-[(2S)-2-methoxypropoxy]quinolin-8-yl}oxy)methyl]phenyl}-1H-1,2,3-triazol-1-yl)-3-methylbutanoyl]-4-hydroxy-N-{(1R)-2-hydroxy-1-[4-(4-methyl-1,3-oxazol-5-yl)phenyl]ethyl}-L-prolinamide] | 
146 | 126 | Cc1ncsc1-c1ccc([C@H](CO)NC(=O)[C@@H]2C[C@@H](O)CN2C(=O)[C@H](C(C)C)n2cc(-c3ccc(COc4c(-c5c(C)c(F)cc6[nH]ncc56)c(C5CC5)cc5c(NC6CN(c7ncccn7)C6)nc(OC6CCOCC6)nc45)cc3)nn2)cc1 [Example 15, (4R)-1-[(2S)-2-{4-[4-({[(7M)-6-cyclopropyl-7-(6-fluoro-5-methyl-1H-indazol-4-yl)-2-[(oxan-4-yl)oxy]-4-{[1-(pyrimidin-2-yl)azetidin-3-yl]amino}quinazolin-8-yl]oxy}methyl)phenyl]-1H-1,2,3-triazol-1-yl}-3-methylbutanoyl]-4-hydroxy-N-{(1R)-2-hydroxy-1-[4-(4-methyl-1,3-thiazol-5-yl)phenyl]ethyl}-L-prolinamide] | 
6 | 15 | CO[C@@H](C)COc1nc(NC2CN(C(=S)N3CC(CN(C)C)C3)C2)c2cc(C3CC3)c(-c3c(C)c(F)cc4[nH]ncc34)c(OCc3ccc(-c4cn([C@H](C(=O)N5C[C@H](O)C[C@H]5C(=O)N[C@@H](CO)c5ccc(-n6cncn6)cc5)C(C)C)nn4)cc3)c2n1 (atropisomer, axis not shown) [Example 26] | 
3 | 29 | CO[C@@H](C)COc1cc(OC2CN(C(=O)CCCN(C)C)C2)c2cc(C3CC3)c(-c3c(C)c(F)cc4[nH]ncc34)c(OCc3ccc(-c4cn([C@H](C(=O)N5C[C@H](O)C[C@H]5C(=O)N[C@@H](CO)c5ccc(-n6cncn6)cc5)C(C)C)nn4)cc3)c2n1 (atropisomer, axis not shown; (M)) [Example 41, (4R)-1-[(2S)-2-(4-{4-[({(7M)-6-cyclopropyl-4-({1-[4-(dimethylamino)butanoyl]azetidin-3-yl}oxy)-7-(6-fluoro-5-methyl-1H-indazol-4-yl)-2-[(2S)-2-methoxypropoxy]quinolin-8-yl}oxy)methyl]phenyl}-1H-1,2,3-triazol-1-yl)-3-methylbutanoyl]-4-hydroxy-N-{(1R)-2-hydroxy-1-[4-(1H-1,2,4-triazol-1-yl)phenyl]ethyl}-L-prolinamide] | 
4 | 16 | CO[C@@H](C)COc1nc(N(C)[C@H]2CCN(C(=O)NCCN(C)C)C2)c2cc(C3CC3)c(-c3c(C)c(F)cc4[nH]ncc34)c(OCc3ccc(-c4cn([C@H](C(=O)N5C[C@H](O)C[C@H]5C(=O)N[C@@H](CO)c5ccc(-c6scnc6C)cc5)C(C)C)nn4)cc3)c2n1 (atropisomer, axis not shown) [Example 19] | 

SMILES | DC50 (RAS G12D) [nM] | IC50 (AsPC-1 cells; [1]) [nM] | IC50 (AsPC-1 cells) [nM]
CO[C@@H](C)COc1cc(OC2CN(C(=O)C3CN(C)C3)C2)c2cc(C3CC3)c(-c3c(C)c(F)cc4[nH]ncc34)c(OCc3ccc(-c4cn([C@H](C(=O)N5C[C@H](O)C[C@H]5C(=O)N[C@@H](CO)c5ccc(-n6cncn6)cc5)C(C)C)nn4)cc3)c2n1 (atropisomer, axis not shown) [Example 42] | 6 |  | 10
CO[C@@H](C)COc1nc(OC2CN(C(=O)NCCN(C)C)C2)c2cc(C3CC3)c(-c3c(C)c(F)cc4[nH]ncc34)c(OCc3ccc(C(=O)N[C@H](C(=O)N4C[C@H](O)C[C@H]4C(=O)N[C@@H](CO)c4ccc(-c5scnc5C)cc4)C(C)C)cc3)c2n1 [Example 40, N-{4-[({(7M)-6-cyclopropyl-4-[(1-{[2-(dimethylamino)ethyl]carbamoyl}azetidin-3-yl)oxy]-7-(6-fluoro-5-methyl-1H-indazol-4-yl)-2-[(2S)-2-methoxypropoxy]quinazolin-8-yl}oxy)methyl]benzoyl}-L-valyl-(4R)-4-hydroxy-N-{(1R)-2-hydroxy-1-[4-(4-methyl-1,3-thiazol-5-yl)phenyl]ethyl}-L-prolinamide] | 47 |  | 62
